{"source": "paper PMC6628648", "about": "“Enabling microbial syringol conversion through structure-guided protein engineering” (Proceedings of the National Academy of Sciences of the …, 2019)", "key": {"[1]": {"target": "T1, GcoA-F169A (Amycolatopsis sp., UniProt P0DPQ7, F169A)", "T1 sequence (P0DPQ7 whole entry F169A)": "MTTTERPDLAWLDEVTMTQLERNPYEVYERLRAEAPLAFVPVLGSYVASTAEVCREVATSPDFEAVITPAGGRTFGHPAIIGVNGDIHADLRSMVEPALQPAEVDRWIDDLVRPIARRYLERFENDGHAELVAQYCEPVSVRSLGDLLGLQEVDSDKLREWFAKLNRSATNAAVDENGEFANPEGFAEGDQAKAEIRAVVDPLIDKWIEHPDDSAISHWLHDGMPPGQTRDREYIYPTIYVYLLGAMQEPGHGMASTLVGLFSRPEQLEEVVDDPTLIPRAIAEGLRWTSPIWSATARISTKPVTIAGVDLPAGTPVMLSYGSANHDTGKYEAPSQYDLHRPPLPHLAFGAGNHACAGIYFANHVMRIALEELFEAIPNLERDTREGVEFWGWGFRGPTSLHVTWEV", "assay": "H2O2 detection via HRP and Amplex Red (uncoupling reaction)", "format": "biochemical, Amycolatopsis sp. ATCC 39116", "design": "GST (N, cleaved yes); made in house; host or cells: E. coli Rosetta 2 (DE3)", "conditions": "referenced to NADH consumed", "method": "A colorimetric assay involving HRP and Amplex Red was used to quantify H2O2 in the reaction between GcoA-F169A GcoA/GcoB, NADH and guaiacol, syringol, or 3MC, as described in SI Appendix. […]\nvi = Vmax[S]/(KM + [S]) (4) […]\nThe reaction of each aliquot was immediately quenched with 12.5\nμL saturated ammonium sulfate, 7% v/v H2SO4 (pH 2.0) prior to loading onto the HPLC column. [Substrate] disappearance was referenced to GcoA (0.2 µM) and fit to a linear line to determine specific activity.\nData analysis. The consumption of NADH and subsequent production of formaldehyde and aromatic product were measured in triplicate and the error reported as ±1 standard deviation. To determine the statistical significance between NADH consumption and the products produced, the p-value was determined for all runs containing guaiacol, syringol, and 3MC. These values were calculated using two degrees of freedom, a tail value of two, and assuming a t-statistical value for unequal variances.\nDetection of H2O2 via horseradish peroxidase (HRP) and Amplex Red assay. The reaction between 100 μM guaiacol or 3MC with 0.2 μM F169A/GcoB and 100 μM NADH in air-saturated buffer (25 mM HEPES, 50 mM NaCl, pH 7.5) was monitored continuously in a quartz cuvette, using the NADH consumption assay described above. The same thing was done for syringol, but with either 100 or 200 μM NADH. When there was no longer any change in the spectra, e.g., the reaction was completed, 100 μL was removed from the cuvette and pipetted into a 96-well microplate. A 5 mL solution containing 50 μL of 10 mM Amplex Red (prepared in DMSO and stored at -20 °C) and 100 μL of 10 U/mL HRP was made up in the above buffer. 100 μL of this was added to each of the wells with each reaction sample. The plate was incubated in the dark at room temperature for 30 min, at which point the absorbance at […]\n572 nm was recorded by a Varioskan Lux microplate reader (Thermo Scientific). The absorbance was compared to a standard curve with 0-100 μM H2O2 to quantify the amount of peroxide produced in the reactions.\nPurified protein was buffer exchanged into 10 mM HEPES pH 7.5 and concentrated to an A280 value of 12, as measured on a NanoDrop 2000 spectrophotometer (Thermo Fisher). Crystals of GcoA were grown with 2.4 M sodium malonate and 200 mM substrate, dissolved in 40% DMSO where necessary. Crystals were cryocooled directly in liquid N2 without further addition of cryoprotectants. All data were collected at Diamond Light Source (Harwell, UK). For each crystal, 1800 images were taken at 0.1o increments using the default wavelength of 0.9795Å on beamline i04. Data was captured on a Pilatus 6M-F detector. […]"}, "[2]": {"target": "T1, GcoA-F169A", "assay": "NADH consumption assay (steady-state kinetics, specific activity) with GcoB", "conditions": "for Specific activity: NADH consumption, saturating (200 µM) substrate, pH 7.5, 25°C; for NADH disappearance (specific activity): Table S1, saturating substrate"}}}
{"smiles": "COc1cccc(O)c1O", "note": "[3MC, 3-methoxycatechol]", "values": [{"measurement": "% H2O2 produced", "setting": "[1]; 100 µM substrate + 100 µM NADH", "value": "17 ± 0.2", "unit": "%"}, {"measurement": "Specific activity", "setting": "[2]", "value": "5.6 ± 0.8", "unit": "μmol sec-1 μmol-1 GcoA"}, {"measurement": "NADH disappearance (specific activity)", "setting": "[2]", "value": "5.6 ± 0.8", "unit": "μM s-1 μmol F169A-1"}]}
{"smiles": "COc1ccccc1O", "note": "[guaiacol, 2-methoxyphenol]", "values": [{"measurement": "% H2O2 produced", "setting": "[1]; 100 µM substrate + 100 µM NADH", "value": "3.7 ± 0.6", "unit": "%"}, {"measurement": "Specific activity", "setting": "[2]", "value": "5.8 ± 0.8", "unit": "μmol sec-1 μmol-1 GcoA"}, {"measurement": "NADH disappearance (specific activity)", "setting": "[2]", "value": "5.8 ± 0.8", "unit": "μM s-1 μmol F169A-1"}]}
{"smiles": "COc1cccc(OC)c1O", "note": "[syringol, 2,6-dimethoxyphenol]", "values": [{"measurement": "% H2O2 produced", "setting": "[1]; 100 µM substrate + 100 µM NADH", "value": "7.4 ± 0.03", "unit": "%"}, {"measurement": "% H2O2 produced", "setting": "[1]; 100 µM substrate + 200 µM NADH", "value": "7.9 ± 0.5", "unit": "%"}, {"measurement": "Specific activity", "setting": "[2]", "value": "5.1 ± 0.8", "unit": "μmol sec-1 μmol-1 GcoA"}, {"measurement": "NADH disappearance (specific activity)", "setting": "[2]", "value": "5.1 ± 0.8", "unit": "μM s-1 μmol F169A-1"}]}
